Literature values, collected in PMC5598522 (Toxicology Reports, 2014).

What was measured:
[1] = Wistar rats; cited from earlier work
rats = conditions: cited from earlier work
[2] = cited from earlier work

CC(C)C[C@H]1C(=O)N2CCC[C@H]2[C@]2(O)O[C@](NC(=O)[C@@H]3C=C4c5cccc6[nH]c(Br)c(c56)C[C@H]4N(C)C3)(C(C)C)C(=O)N12 [bromocriptine]
Weight gain [1]: inhibited weight gain
Uterine and mammary tumors (rats): increases uterine and decreases mammary tumors only in rats

COC(=O)[C@H](c1ccccc1Cl)N1CCc2sccc2C1 [Clopidogrel]
Tumor incidences in 2 year carcinogenicity bioassay [2]: did not alter tumor incidences
